Consider 24 molecules from ChEMBL document CHEMBL3758080, “4-Arylamino-6-nitroquinazolines: Synthesis and their activities against neglected disease leishmaniasis” (Eur J Med Chem, 2016).

The structures appear in SMILES notation.

What is called IC50 is the midpoint of a concentration-inhibition curve.

The first test relates to Leishmania major. In words: Antileishmanial activity against Leishmania major promastigotes after 72 hrs by Neubauer counting chamber based microscopy.
Conditions: not given; call rule not given here
In kind it is functional, organism-based.
Turning to `O=[N+]([O-])c1ccc2ncnc(Nc3cccc(Cl)c3)c2c1`, the half-maximal inhibitory concentration (IC50) entry is listed as “Not Active”. Still for that read-out and setting: the entry for `O=[N+]([O-])c1ccc2ncnc(Nc3ccccc3)c2c1` is “Not Active”; for `O=[N+]([O-])c1ccc2ncnc(Nc3ccc(F)cc3)c2c1` it is “Not Active”. As to `O=[N+]([O-])c1ccc2ncnc(Nc3ccc(I)cc3)c2c1`, the IC50 entry is on record as “Not Active”. Still for that read-out and setting: the entry for `COc1cccc(Nc2ncnc3ccc([N+](=O)[O-])cc23)c1` is “Not Active”; for `O=[N+]([O-])c1ccc2ncnc(Nc3ccc(Cl)cc3Cl)c2c1` it is “Not Active”; for `O=[N+]([O-])c1ccc2ncnc(Nc3ccc(Cl)cc3)c2c1` it is “Not Active”. On to `O=[N+]([O-])c1ccc2ncnc(Nc3cccc(O)c3)c2c1`, for which the IC50 entry is given as “Not Active”. In the case of `COc1ccc(Nc2ncnc3ccc([N+](=O)[O-])cc23)cc1`, the IC50 result is given as “Not Active”. As to `Cc1ccc(C)c(Nc2ncnc3ccc([N+](=O)[O-])cc23)c1`, the IC50 result is listed as “Not Active”. On the same count and under the same terms, for `O=[N+]([O-])c1ccc2ncnc(Nc3cc(Cl)ccc3Cl)c2c1` the value was “Not Active”. With `O=[N+]([O-])c1ccc2ncnc(Nc3ccc(Cl)c(Cl)c3)c2c1`, the IC50 result is “Not Active”.

Regarding `COc1cc(OC)c(Nc2ncnc3ccc([N+](=O)[O-])cc23)cc1Cl`, the half-inhibitory concentration (IC50) entry was “Not Active”.

Staying with this test, now noted: Leishmania major, 72 h; read-out: IC50.
For the molecule `O=[N+]([O-])c1ccc2ncnc(Nc3cccc(Br)c3)c2c1`, the IC50 came to 9.04 µM.

As for `Cc1ccc(Nc2ncnc3ccc([N+](=O)[O-])cc23)cc1C`, the IC50 turned out to be 35.9 µM. On the same count and under the same terms, for `COc1ccccc1Nc1ncnc2ccc([N+](=O)[O-])cc12` the value was 4.37 µM; for `Cc1ccc(Cl)cc1Nc1ncnc2ccc([N+](=O)[O-])cc12`, 44.9 µM. Take `COc1ccc(OC)c(Nc2ncnc3ccc([N+](=O)[O-])cc23)c1`: the half-inhibitory concentration (IC50) was 12.3 µM. Still for that read-out and setting: the figure for `O=[N+]([O-])c1ccc2ncnc(Nc3ccccc3Cl)c2c1` is 6.53 µM; for `CSc1ccc(Nc2ncnc3ccc([N+](=O)[O-])cc23)cc1` it is 1.87 µM; for `Cc1ccc(Nc2ncnc3ccc([N+](=O)[O-])cc23)cc1` it is 24 µM.

As for `CCc1ccc(Nc2ncnc3ccc([N+](=O)[O-])cc23)cc1`, the IC50 stood at 38.2 µM. For `CSc1cccc(Nc2ncnc3ccc([N+](=O)[O-])cc23)c1`, the IC50 was 19.9 µM.

For `O=[N+]([O-])c1ccc2ncnc(Nc3ccc(Br)cc3)c2c1`, the half-maximal inhibitory concentration (IC50) stood at 61.5 µM.

The subject of the next test is Leishmania major. Description: Potency index, ratio IC50 of pentamidine to IC50 of compound for antilieshmanial activity against Leishmania major promastigotes.
Conditions: not given
It is filed as functional.
Regarding `CSc1ccc(Nc2ncnc3ccc([N+](=O)[O-])cc23)cc1`, the “Ratio IC50” value worked out at 3.
